# Key:
# Format in all cases: cell-based
# [1] = biological target: T1, M4 muscarinic receptor (Homo sapiens, UniProt P08173); assay: Functional mobilization of intracellular calcium (FLIPR), M4-CHO cells; settings: for M4 Activity: M4-CHO cells, calcium mobilization (FLIPR)
# T1 construct: expressed in transfected cells; host or cells: CHO (M4-CHO)
# T1 sequence (P08173 1-479): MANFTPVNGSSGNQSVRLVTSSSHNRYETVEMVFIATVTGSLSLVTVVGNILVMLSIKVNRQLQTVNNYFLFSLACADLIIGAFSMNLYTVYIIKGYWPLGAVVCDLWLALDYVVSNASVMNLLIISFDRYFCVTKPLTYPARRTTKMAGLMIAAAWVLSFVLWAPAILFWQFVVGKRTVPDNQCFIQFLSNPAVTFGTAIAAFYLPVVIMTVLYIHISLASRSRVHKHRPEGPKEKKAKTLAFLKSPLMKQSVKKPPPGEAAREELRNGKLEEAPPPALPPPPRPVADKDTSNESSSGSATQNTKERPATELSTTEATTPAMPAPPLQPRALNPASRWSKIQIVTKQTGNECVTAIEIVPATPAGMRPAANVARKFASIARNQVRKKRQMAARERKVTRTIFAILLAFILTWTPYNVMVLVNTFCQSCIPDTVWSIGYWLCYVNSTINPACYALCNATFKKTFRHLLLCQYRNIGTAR
# How it was run: (§1)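 Calcium mobilisation read by FLIPR over 60 s (ex 488/em 540 nm) in recombinant muscarinic CHO lines loaded with calcium dye plus 1 mM probenecid. Compounds tested as agonists alone, or as inhibitors against EC80 carbachol after 15 min pre-incubation or co-addition; 0.5% DMSO; efficacy scaled to carbachol maximal response.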
# [2] = biological target: T2, M3 muscarinic receptor (Homo sapiens, UniProt P20309); assay: Functional mobilization of intracellular calcium (FLIPR), M3-CHO cells; settings: for M3 Activity: M3-CHO cells, calcium mobilization (FLIPR)
# T2 construct: expressed in transfected cells; host or cells: CHO (M3-CHO)
# Method: Functional Mobilization of Intracellular Calcium to Determine Muscarinic Receptor Activity:
# CHO cells expressing muscarinic receptors (M1 to M5) are grown as monolayers in tissue culture flasks at 37° C. in a humidified atmosphere containing 5% CO2 and passaged every 3-5 days. The growth media is Dulbecco's modified eagles medium (DMEM, Gibco Cat #12430-054), containing 25 mM Hepes and supplemented with Fetal Bovine Serum (Hyclone, cat #SH30071.03), 0.1 mM of MEM non-essential amino acids (GIBCO, Cat #11140-050), 1 mM MEM Sodium Pyruvate (GIBCO Cat #11360-070) and 100 units/ml of Penicillin G and 100 μg/ml of Streptomycin (GIBCO Cat #15140-122). The recombinant muscarinic receptor cell lines are grown under antibiotic pressure with media containing 25 μg/ml zeocin and 500 μg/ml G418 (M1-CHO), 4 μg/ml puromycin, 50 μg/ml zeocin and 2.5 μg/ml blasticidin (M2 and M4-CHO) or 50 μg/ml zeocin and 4 μg/ml puromycin (M3 and M5-CHO).
# Cells are harvested at 80-90% confluence using Versene (GIBCO Cat #15040-066), collected by centrifugation and seeded 18-24 hrs prior to running the calcium assay at a density of 5,000-10,000 cells/well in […], clear-bottomed 384-well plates (BD Biocoat, poly-D-lysine, Cat #356663). The day of the experiment, the cells are washed with a plate washer (Bioteck Instruments, ELX 405) using bath 1 buffer (140-mM NaCl, 4.5-mM KCl, 2-mM CaCl2, 1-mM MgCl2, 10-mM Hepes-Na, 10-mM Glucose, pH 7.4, with NaOH) containing 1 mM Probenecid. Next, the calcium dye Fluo-3 (25 μl/well of Fluo-3 AM at 4 μM, Molecular Probes F-1241, in Bath 1 buffer containing 1 mM Probenecid) is added to the 25 μl of Bath 1 remaining in each well after the plate wash and the dye is loaded at 37° C. in the tissue culture incubator for 60-90 min. The fluorescent dye is removed using the plate washer with Bath 1 containing 1 mM Probenecid, leaving 25 μl/well of this solution after the wash. Alternatively, cells can be loaded with the calcium indicator from Molecular Devices (Calcium 3 Assay Reagents, Cat #R7181) adding 5 μl of a 5× solution dye in Bath 1 containing 1 mM Probenecid (10 ml per dye flask cat #R7182 to generate a solution 20×) to 20 μl of the same buffer. After loading for 60 min, the experiment can be run without having to remove the dye.
# Compounds are prepared at a 2× fold concentration in a 96-well plate (round bottom, Costar Corning cat #3656), by reconstituting the pre-spotted compounds in bath 1 containing 1 mM probenecid. The final concentration DMSO is 0.5%, and the amount of DMSO is normalized across the assay plate. To determine an agonist action of the compounds on muscarinic receptors, the reconstituted compounds are added (25 μl compound/well) to the cell assay plate (containing 25 μl/well) using the multi-channel robotic system of the FLIPR 3 Instrument (Molecular Devices, Sunnyvale, Calif.). To determine a functional inhibitory action of the compounds on muscarinic receptors, the reconstituted compounds are added (25 μl compound/well) to the assay plate and pre-incubated for 15 min prior to adding 25 μl of Carbachol at 3× the EC80 for each muscarinic subtype. Alternatively, the compounds can be co-applied simultaneously with the agonist. In both assay modes, the fluorescence is recorded for 60 sec (excitation wavelength is […] and emission wavelength 540 nm) using the FLIPR 3 instrument.
# The potency, efficacy and selectivity of the muscarinic compounds were evaluated by screening the compound activity across the whole family (M1 to M5 cells). Compounds were also screened for activity on other proteins such as other GPCRs and ion channels to determine selectivity on M4 receptors.
# Examples of activities and efficacies of the muscarinic compounds of formulae (I, Ia, Ib, and II) on modulating M1, M2, M3 and M4 receptors are shown below in Table 3. […]
# [3] = biological target: T3, M1 muscarinic receptor (Homo sapiens, UniProt P11229); assay: Functional mobilization of intracellular calcium (FLIPR), M1-CHO cells; settings: for M1 Activity: M1-CHO cells, calcium mobilization (FLIPR)
# T3 construct: expressed in transfected cells; host or cells: CHO (M1-CHO)
# T3 sequence (P11229 1-460): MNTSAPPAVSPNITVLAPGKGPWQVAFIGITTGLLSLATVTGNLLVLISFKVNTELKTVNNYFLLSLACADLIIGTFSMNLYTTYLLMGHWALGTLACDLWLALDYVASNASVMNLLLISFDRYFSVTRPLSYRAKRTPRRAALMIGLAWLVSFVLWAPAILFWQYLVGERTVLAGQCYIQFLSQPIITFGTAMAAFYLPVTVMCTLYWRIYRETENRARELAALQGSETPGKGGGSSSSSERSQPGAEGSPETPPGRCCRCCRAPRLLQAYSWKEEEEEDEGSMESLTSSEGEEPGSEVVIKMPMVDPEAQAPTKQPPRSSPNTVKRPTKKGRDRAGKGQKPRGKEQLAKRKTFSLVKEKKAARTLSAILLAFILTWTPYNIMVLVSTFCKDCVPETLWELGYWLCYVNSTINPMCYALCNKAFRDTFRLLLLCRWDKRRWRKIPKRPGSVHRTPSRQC
# How it was run: as §1
# [4] = biological target: T4, M2 muscarinic receptor (Homo sapiens, UniProt P08172); assay: Functional mobilization of intracellular calcium (FLIPR), M2-CHO cells; settings: for M2 Activity: M2-CHO cells, calcium mobilization (FLIPR)
# T4 construct: expressed in transfected cells; host or cells: CHO (M2-CHO)
# T4 sequence (P08172 1-466): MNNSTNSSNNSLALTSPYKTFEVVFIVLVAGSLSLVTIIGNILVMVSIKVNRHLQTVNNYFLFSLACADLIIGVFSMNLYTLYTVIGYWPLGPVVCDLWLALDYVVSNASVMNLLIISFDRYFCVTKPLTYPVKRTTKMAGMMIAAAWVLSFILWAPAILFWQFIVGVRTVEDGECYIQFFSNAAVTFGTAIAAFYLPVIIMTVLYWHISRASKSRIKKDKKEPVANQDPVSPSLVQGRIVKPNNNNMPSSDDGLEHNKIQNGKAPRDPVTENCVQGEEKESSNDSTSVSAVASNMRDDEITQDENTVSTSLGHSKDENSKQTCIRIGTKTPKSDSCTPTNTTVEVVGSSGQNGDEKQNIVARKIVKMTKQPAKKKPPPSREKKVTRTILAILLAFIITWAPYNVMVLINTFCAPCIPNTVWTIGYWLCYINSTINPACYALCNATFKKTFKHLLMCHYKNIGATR
# How it was run: as §1
# [5] = 100% efficacy = maximum response obtained with the Carbachol control
# [6] = 100% efficacy is the maximum response obtained with the Carbachol control
# T2 sequence (P20309 whole entry): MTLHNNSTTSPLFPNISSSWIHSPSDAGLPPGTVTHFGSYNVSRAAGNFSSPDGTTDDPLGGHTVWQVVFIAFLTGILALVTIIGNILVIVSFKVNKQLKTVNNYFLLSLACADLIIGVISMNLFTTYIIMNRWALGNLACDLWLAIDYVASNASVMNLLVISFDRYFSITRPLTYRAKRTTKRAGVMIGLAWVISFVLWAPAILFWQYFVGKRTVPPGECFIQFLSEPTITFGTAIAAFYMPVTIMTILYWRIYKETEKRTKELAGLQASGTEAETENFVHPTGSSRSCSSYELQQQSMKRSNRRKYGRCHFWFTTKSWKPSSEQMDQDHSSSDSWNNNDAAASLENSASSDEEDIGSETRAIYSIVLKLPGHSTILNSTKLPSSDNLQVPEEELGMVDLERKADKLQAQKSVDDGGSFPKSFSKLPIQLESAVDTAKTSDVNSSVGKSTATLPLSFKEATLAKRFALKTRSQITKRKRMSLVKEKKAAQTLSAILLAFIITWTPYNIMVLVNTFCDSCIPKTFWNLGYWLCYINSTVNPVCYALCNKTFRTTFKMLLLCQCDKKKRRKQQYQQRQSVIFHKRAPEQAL
Structure (SMILES),"Emax [1, 5] [%]","Emax [2, 5] [%]","Emax [3, 5] [%]","Emax [4, 5] [%]","Emax [1, 6] [%]","Emax [2, 6] [%]","Emax [3, 6] [%]","Emax [4, 6] [%]",M4 Activity [1],M3 Activity [2],M1 Activity [3],M2 Activity [4]
"Fc1ccccc1-c1ccccc1C1CCN(C2CC3CC[C@H]2C3)CC1 (stereo in doubt) [Compound 10, 1-((1S,2R,4R)-bicyclo[2.2.1]heptan-2-yl)-4-(2′-fluorobiphenyl-2-yl)piperidine]",25 to 100,< 25,< 25,25 to 100,,,,,++ (activity was measured to be from 1.0 μM to 5.0 μM),+ (activity was measured to be greater than 5.0 μM),+ (activity was measured to be greater than 5.0 μM),+ (activity was measured to be greater than 5.0 μM)
"COc1ccc(C#Cc2ccccc2)cc1C1CCN(C2CC3CC[C@H]2C3)CC1 (stereo in doubt) [Compound 64, 1-((1S,2R,4R)-bicyclo[2.2.1]heptan-2-yl)-4-(2-methoxy-5-(phenyl-ethynyl)phenyl)piperidine]",25 to 100,< 25,25 to 100,25 to 100,,,,,++ (activity was measured to be from 1.0 μM to 5.0 μM),+ (activity was measured to be greater than 5.0 μM),+ (activity was measured to be greater than 5.0 μM),+ (activity was measured to be greater than 5.0 μM)
"COc1ccc(C(=O)C(C)C)cc1C1CCN(C2CC3CC[C@H]2C3)CC1 (stereo in doubt) [Compound 222, 1-(3-(1-((1S,2R,4R)-bicyclo[2.2.1]heptan-2-yl)piperidin-4-yl)-4-methoxyphenyl)-2-methylpropan-1-one]",< 25,< 25,25 to 100,< 25,,,,,,,,
COc1ccccc1C1CCN(CC2CCCOC2)CC1 (stereo not shown) [Compound 2],25 to 100,< 25,25 to 100,< 25,,,,,++ (activity was measured to be from 1.0 μM to 5.0 μM),+ (activity was measured to be greater than 5.0 μM),+ (activity was measured to be greater than 5.0 μM),+ (activity was measured to be greater than 5.0 μM)
COc1ccc(C(=O)C2CC2)cc1C1CCN([C@H]2C[C@H]3CC[C@H]2C3)CC1 [Compound 3],< 25,< 25,< 25,< 25,,,,,+ (activity was measured to be greater than 5.0 μM),+ (activity was measured to be greater than 5.0 μM),+ (activity was measured to be greater than 5.0 μM),+ (activity was measured to be greater than 5.0 μM)

# Second part, led by results:
"Emax [1, 5] [%]","Emax [2, 5] [%]","Emax [3, 5] [%]","Emax [4, 5] [%]","Emax [1, 6] [%]","Emax [2, 6] [%]","Emax [3, 6] [%]","Emax [4, 6] [%]",Structure (SMILES),M4 Activity [1],M3 Activity [2],M1 Activity [3],M2 Activity [4]
25 to 100,< 25,25 to 100,25 to 100,,,,,"CC(=O)COc1ccccc1C1CCN(C2CC3CC[C@H]2C3)CC1 (stereo in doubt) [Compound 53, 1-(2-(1-((1S,2R,4R)-bicyclo[2.2.1]heptan-2-yl)piperidin-4-yl)phenoxy)propan-2-one]",,,,
25 to 100,< 25,25 to 100,< 25,,,,,"Oc1ccccc1C1CCN(C2CC3CC[C@H]2C3)CC1 (stereo in doubt) [Compound 229, 2-(1-((1S,2R,4R)-bicyclo[2.2.1]heptan-2-yl)piperidin-4-yl)phenol]",++ (activity was measured to be from 1.0 μM to 5.0 μM),+ (activity was measured to be greater than 5.0 μM),++ (activity was measured to be from 1.0 μM to 5.0 μM),+ (activity was measured to be greater than 5.0 μM)
,,,,25 to 100,< 25,25 to 100,< 25,"COc1ccccc1C1CCN(C2CC3CC[C@H]2C3)CC1 (stereo in doubt) [Compound 397, 1-((1S,2R,4R)-bicyclo[2.2.1]heptan-2-yl)-4-(2-methoxyphenyl)piperidine]",+++ (activity was measured to be less than 1.0 μM),+ (activity was measured to be greater than 5.0 μM),++ (activity was measured to be from 1.0 μM to 5.0 μM),+ (activity was measured to be greater than 5.0 μM)
25 to 100,< 25,25 to 100,< 25,,,,,COc1cc(F)ccc1C1CCN([C@H]2C[C@H]3CC[C@H]2C3)CC1 [Compound 4],+++ (activity was measured to be less than 1.0 μM),+ (activity was measured to be greater than 5.0 μM),+ (activity was measured to be greater than 5.0 μM),+ (activity was measured to be greater than 5.0 μM)

# Source: patent US7880007B2, “Bicyclic substituted phenyl piperidine modulators of muscarinic receptors” (Vertex Pharmaceuticals Incorporated, priority 2004, dated 2011)
